# Measurements from patent US6638963B1, “Methods for treating circadian rhythm disorders” (Oregon Health and Science University, priority 1990, dated 2003).
# Columns and labels:
# Type in all cases: in vivo, human
# [1] = system: endogenous circadian pacemaker; experiment: Dose effect of melatonin on shift of the endogenous circadian pacemaker; conditions: melatonin dosages from about 0.125 mg to about 0.5 mg
# Description: The present invention contemplates the administration of various doses of melatonin which promote quantitative shifts in an individual's endogenous circadian pacemaker. The administration of sufficient doses of melatonin is capable of shifting the endogenous circadian pacemaker, as well as the melatonin PRC, by an appropriate degree. […] The amount of melatonin administered to a human subject should be sufficient to achieve the desired circadian rhythm phase-shifting effect. In a preferred embodiment of this invention, a dosage of about 0.01 mg to about 100 mg, more preferably about 0.1 mg to about 10 mg, most preferably about 0.1 mg to about 1 mg, of exogenous melatonin is used to effect the desired change in phase of the circadian rhythm of endogenous melatonin production. For the purposes of this invention, the term “exogenously administered melatonin” encompasses various formulations of melatonin, melatonin agonists (that is, compounds that mimic melatonin's actions) and compounds that raise endogenous melatoriin levels. Therefore, whenever reference is made to increasing plasma melatonin levels due to administration of exogenous melatonin, this refers also to increasing plasma melatonin levels due to administration of a melatonin stimulant and increasing equivalent agonist levels due to administration of a melatonin agonist. […]
# [2] = system: dim light melatonin onset (DLMO); experiment: Melatonin phase response curve trials, two doses of 0.25 mg two hours apart (Example 2); conditions: four days, nine subjects, 30 trials, time referenced to first capsule
# Description: (§1) Prior to collection of human blood, subjects were kept in dim light for about 5 hours (usually between 6 p.m. and 11 p.m.). An intravenous line or heparin lock was inserted in a forearm vein and 5 mL of blood drawn every 30 minutes between 7 p.m. and 11 p.m. The blood samples were centrifuged for 5 minutes at 1000 g and 4° C., and the plasma aspirated into a silanized glass or plastic tube. Samples were assayed immediately or frozen for later analysis. Saliva samples can alternatively be collected and analyzed
# To a 1 mL aliquot of such plasma was added 50 picograms of N-acetyl-5-methoxy(α,α,β,β-D4)tryptamine as a chromatographic control. […]
# (§2) The amount of melatonin present in each sample was determined by gas chromatographic-mass spectrometric analysis. […]
# Mass spectrographic analysis of the column eluant was then performed. Mass spectra were recorded using a Hewlett Packard 5989A mass spectrometer with an ETP Scientific electron multiplier using HP Chemstation software. The relative signals of melatonin and the added N-acetyl-5-methoxy(α,α,β,β-D4)tryptamine control were detected at m/e (mass/charge) ratios of 320 and 323, respectively. […]
# Melatonin was administered to nine subjects as two doses of 0.25 mg, two hours apart, thereby simulating a sustained-release (SR) formulation. […] Phase shifts were calculated by subtracting the post-treatment DLMO from the pre-treatment DLMO. […]
# [3] = system: patients with winter depression; experiment: Treatment of patients with winter depression, SIGH-SAD depression ratings, melatonin versus placebo (Example 11); conditions: for SIGH-SAD change score from pre-treatment: 0.125 mg per capsule at about CT 8 and about CT 12, N=5, p<0.05 vs placebo
# Description: Patients with winter depression were treated with either melatonin (N=5) or placebo (N=5). All subjects were screened prior to being admitted into the study and met the following criteria: 1) the DSM-IV criteria (American Psychiatric Association, 1994) for moderate to severe major depressive disorder (without psychotic episodes) or bipolar disorder (depressed or not otherwise specified) with a winter type seasonal pattern; 2) scored […] on the Structured Interview Guide for the Hamilton Depression Rating Scale Seasonal Affective Disorder Version (SIGH-SAD) (Williams et al., 1994, Structured Interview Guide for the Hamilton Depression Scale-Seasonal Effective Disorder Version (SIGH-SAD), New York: New York State Psychiatric Institute) with Hamilton Depression Scale (HAM-D) (Hamilton, 1967, Brit. J. Soc. Clin. Psychol. 6: 278-296)≦10 and an atypical score ≦5 ([…] et al., 1990, Neuropsychopharmacol. […] Prior to inclusion in the study, subjects were interviewed by a physician and also completed 7 a health and sleep screening questionnaire. Written informed consent was obtained for all participants. The study was a three-week, parallel-group design, consisting of a pre-treatment assessment followed by three treatment weeks. Subjects were randomly assigned to either a melatonin or placebo group and were counter balanced based on their initial depression scores (SIGH-SAD) and their reported awakening times. Each group received melatonin or placebo in two daily capsules at about CT 8 and about CT 12, estimated from each subject's initial reported awakening time (about CT 0). The dose of melatonin was 0.125 mg per capsule. For behavioral ratings, subjects were initially interviewed face-to-face using the 29-item Structured Interview Guide for the Hamilton Depression Rating Scale-Seasonal Affective Disorder version (SIGH-SAD). Two subsequent interviews were done weekly by telephone and the third and final interview was conducted in person. All interviews were conducted by a researcher blind to treatment conditions. For the three-week period, subjects completed a Likert daily rating form and a daily sleep diary. To specifically assess fatigue associated with the capsule, subjects also completed a Profile of Mood States (POMS) 30 minutes after ingestion of each capsule. In addition, pre-study and weekly expectations questionnaires were completed. Ten patients (9 females) with winter depression were admitted into the study. The mean age of the melatonin group was 37 (SD=13.6; range: 22-58) and the placebo group was 32.2 (SD=8.6; range: 22-42). The mean pre-treatment SIGH-SAD score for the placebo group was 29.4; the melatonin group mean was 29.2. The initial reported mean wake up time for the placebo group was 7:12 AM; the melatonin group mean was 7:20 AM. […]
# [4] = system: dim light melatonin onset (DLMO); experiment: Melatonin phase response curve trials, single 0.5 mg immediate-release dose (Example 3)
# Description: as §1
# To a 1 mL aliquot of such plasma was added 50 picograms of N-acetyl-5-methoxy(α,α,β,β-D4)tryptamine as a chromatographic control. An equal volume of normal saline was added and the mixture gently shaken with 8 volumes of petroleum ether. The organic phase was removed, and melatonin and the added N-acetyl-5-methoxy(α,α,β,β-D4)tryptamine control extracted from the aqueous phase with 8 volumes of chloroform. The aqueous phase was then discarded, and the chloroform evaporated to dryness.
# The dried extract containing melatonin and the added N-acetyl-5-methoxy(α,α,β,β-D4)tryptamine control was dissolved in 50 μL ethyl acetate. The melatonin contained in the plasma samples and the added N-acetyl-5-methoxy(α,α,β,β-D4)tryptamine control were then derivatized by the addition of 50 μL of pentafluoroproprionic acid anhydride and reacted at 70° C. for 10 minutes. These reaction products were then evaporated to dryness under nitrogen. The dried extract was partitioned between 0.5 mL acetonitrile and 1 mL hexane by vigorous mixing followed by centrifugation and removal of the hexane layer. This partitioning step was repeated twice more, except that the hexane was not removed after the final partitioning. […]
# as §2
# Mass spectrographic analysis of the column eluant was then performed. Mass spectra were recorded using a Hewlett Packard 5989A mass spectrometer with an ETP Scientific electron multiplier using HP Chemstation software. The relative signals of melatonin and the added N-acetyl-5-methoxy(α,α,β,β-D4)tryptamine control were detected at m/e (mass/charge) ratios of 320 and 323, respectively. The amount of melatonin present in any unknown sample can be determined by comparison of the ratio of the intensities of these signals to a standard curve, prepared as described using known amounts of melatonin and added N-acetyl-5-methoxy(α,α,β,β-D4)tryptamine control.
# Melatonin was administered to five subjects as a single 0.5 mg (or immediate-release (IR)) dose. […] Dim light melatonin onset (DLMO) times were determined at the end of each week. Phase shifts were calculated from a comparison of the post-treatment DLMO to the pre-treatment DLMO. […]
# [5] = both PRC studies (Examples 2 and 3)
smiles,measurement,setting,value
"COc1ccc2[nH]cc(CCNC(C)=O)c2c1 [melatonin, N-acetyl-5-methoxytryptamine]",dose effect on shift of endogenous circadian pacemaker,[1],linear dose effect
same,circadian time of administration at which maximal phase advances occur,[2],~7.5 CT
same,SIGH-SAD change score from pre-treatment,[3]; Week 1,15.4
same,SIGH-SAD change score from pre-treatment,[3]; Week 2,16.8
same,responders (39% or greater decrease in SIGH-SAD ratings to a score of 21 or less),"[3]; five subjects per group, one responder in placebo group, p=0.048, Fisher's Exact test",all five subjects responded
same,"SIGH-SAD scores after two weeks of capsules, melatonin versus placebo","[3]; one-tailed unpaired t-test, p=0.05",significant difference
same,crossover point between advance and delay responses of the melatonin PRC,[4]; [5],~18 CT
same,crossover point between delay and advance responses of the melatonin PRC,[4]; [5],~6 CT
same,circadian time for maximal phase advances,"[4]; single 0.5 mg IR dose, four days, five subjects, twelve trials each",~11 CT
same,circadian time at which phase delays begin,"[4]; single 0.5 mg IR dose, same time as found in Example 2",~6 CT
